According to ChEMBL document CHEMBL5579856, “Stereospecific Synthesis and Biological Evaluation of KRN7000 Analogues with Thio-modifications at the Acyl Moiety” (2024):

Legend:
Format in all cases: functional
Settings in all cases: dose 200 µg/kg
Mus musculus [1] = assay: Induction of IFN-gamma secretion in male C57BL/6 mouse assessed as […] in serum at 200 ug/kg, iv measured after 16 hrs by ELISA (reference value: BLD)
Mus musculus [2] = assay: Induction of IL-4 secretion in male C57BL/6 mouse assessed as IL-4 level in serum at 200 ug/kg, iv measured after 4 hrs by ELISA (reference value: BLD)
Mus musculus [3] = assay: Induction of cytokine secretion in male C57BL/6 mouse assessed as ratio of IFN-gamma to IL-4 level in serum at 200 ug/kg, iv by ELISA

`CCCCCCCCCCCCCC[C@@H](O)[C@@H](O)[C@H](CO[C@H]1O[C@H](CO)[C@H](O)[C@H](O)[C@H]1O)NC(=O)CCCCCCCCCCc1ccc(F)cc1` was tested, and the Activity (Mus musculus [1]) was 2470.48 pg/mL, the Activity (Mus musculus [2]) was 425.65 pg/mL and the Ratio (Mus musculus [3]) was 2.03.

Work on `CCCCCCCCCCCCCCCCCCCCCCCCCC(=S)N[C@@H](CO[C@H]1O[C@H](CO)[C@H](O)[C@H](O)[C@H]1O)[C@H](O)[C@H](O)CCCCCCCCCCCCCC` yielded an Activity (Mus musculus [1]) of 3291.25 pg/mL, an Activity (Mus musculus [2]) of 951.79 pg/mL and a Ratio (Mus musculus [3]) of 1.21.

`CCCCCCCCCCCCCC[C@@H](O)[C@@H](O)[C@H](CO[C@H]1O[C@H](CO)[C@H](O)[C@H](O)[C@H]1O)NC(=S)CCCCCCCCCCc1ccc(F)cc1` gave an Activity (Mus musculus [1]) of 1610.18 pg/mL, an Activity (Mus musculus [2]) of 276.98 pg/mL and a Ratio (Mus musculus [3]) of 2.03.

`CCCCCCCCCCCCCC[C@@H](O)[C@@H](O)[C@H](CO[C@H]1O[C@H](CO)[C@H](O)[C@H](O)[C@H]1O)NC(=O)CCCCCCCCCCc1ccc(Sc2ccc(F)cc2)cc1` gave an Activity (Mus musculus [1]) of 2100.52 pg/mL, an Activity (Mus musculus [2]) of 324.56 pg/mL and a Ratio (Mus musculus [3]) of 2.26.

For `CCCCCCCCCCCCCC[C@@H](O)[C@@H](O)[C@H](CO[C@H]1O[C@H](CO)[C@H](O)[C@H](O)[C@H]1O)NC(=S)CCCCCCCCCCc1ccc(Oc2ccc(F)cc2)cc1`, the Activity (Mus musculus [1]) was 571.16 pg/mL, the Activity (Mus musculus [2]) was 125.69 pg/mL and the Ratio (Mus musculus [3]) was 1.59.

`CCCCCCCCCCCCCC[C@@H](O)[C@@H](O)[C@H](CO[C@H]1O[C@H](CO)[C@H](O)[C@H](O)[C@H]1O)NC(=O)CCCCCCCCCCc1ccc(Oc2ccc(F)cc2)cc1` showed an Activity (Mus musculus [1]) of 655.43 pg/mL, an Activity (Mus musculus [2]) of 205.34 pg/mL and a Ratio (Mus musculus [3]) of 1.12.

`CCCCCCCCCCCCCC[C@@H](O)[C@@H](O)[C@H](CO[C@H]1O[C@H](CO)[C@H](O)[C@H](O)[C@H]1O)NC(=S)CCCCCCCCCCc1ccc(Sc2ccc(F)cc2)cc1` was tested, and the Activity (Mus musculus [1]) was 1046.54 pg/mL, the Activity (Mus musculus [2]) was 396.07 pg/mL and the Ratio (Mus musculus [3]) was 0.99.

For `CCCCCCCCCCCCCCCCCCCCCCCCCC(=O)N[C@@H](CO[C@H]1O[C@H](CO)[C@H](O)[C@H](O)[C@H]1O)[C@H](O)[C@H](O)CCCCCCCCCCCCCC` [RGI-7000], the Activity (Mus musculus [1]) was 3083.43 pg/mL and the Activity (Mus musculus [2]) was 1077.7 pg/mL.
